The values that follow are results of earlier work, collected in patent US20250195551A1 (L4 BIO LLC, priority 2023, published 2025).

In the data set the target is 7-aminobutyric acid A (GABAA) receptor. The note with it: interaction with GABAA receptor in humans; cited from earlier work.

Take ivermectin: the EC50 (commonly the midpoint of the concentration-response curve) was ~920 nM.
